These results are taken from publication PMC5218480 (PLoS ONE, 2017).

The subject of the test is MV-4-11 cells. The experiment in a line: Gene expression microarray analysis (Affymetrix PrimeView) and GSEA. Format: cell-based, human. Also on record: RFU PODN (11730768_x_at) / Fold change /veh PODN (11730768_x_at) / RFU LINC00158 (11744669_a_at) / Fold change /veh LINC00158 (11744669_a_at) / RFU DUSP10 (11751237_a_at) / Fold change /veh DUSP10 (11751237_a_at) / RFU ID3 (11757404_x_at) / Fold change /veh ID3 (11757404_x_at) / RFU PLEKHG5 (11737974_s_at) / Fold change /veh PLEKHG5 (11737974_s_at) / RFU LRRC4B (11730491_at) / Fold change /veh LRRC4B (11730491_at) / RFU GIMAP4 (11747438_a_at) / Fold change /veh GIMAP4 (11747438_a_at) / RFU KRT8 (11758183_x_at) / Fold change /veh KRT8 (11758183_x_at) / RFU CNN1 (11734310_a_at) / Fold change /veh CNN1 (11734310_a_at) / RFU VPS37D (11726825_at) / Fold change /veh VPS37D (11726825_at) / RFU C10orf10 (11716522_x_at) / Fold change /veh C10orf10 (11716522_x_at) / RFU KIR2DL2 /// KIR2DL4 /// KIR2DL5A /// KIR2DL5B /// KIR2DS1 /// KIR2DS2 /// KIR2DS3 /// KIR2DS4 /// KIR3DL3 /// KIR3DL3 /// KIR3DS1 (11738374_at) / Fold change /veh KIR2DL2 /// KIR2DL4 /// KIR2DL5A /// KIR2DL5B /// KIR2DS1 /// KIR2DS2 /// KIR2DS3 /// KIR2DS4 /// KIR3DL3 /// KIR3DL3 /// KIR3DS1 (11738374_at) / RFU C1QL1 (11718748_at) / Fold change /veh C1QL1 (11718748_at) / RFU TMPRSS4 (11747572_a_at) / Fold change /veh TMPRSS4 (11747572_a_at) / RFU HAMP (11756126_x_at) / Fold change /veh HAMP (11756126_x_at) / RFU RNFT2 (11725882_a_at) / Fold change /veh RNFT2 (11725882_a_at) / RFU NR4A2 (11747474_a_at) / Fold change /veh NR4A2 (11747474_a_at) / RFU ABCC12 (11746883_a_at) / Fold change /veh ABCC12 (11746883_a_at) / RFU TMEM136 (11760407_x_at) / Fold change /veh TMEM136 (11760407_x_at) / RFU CLDN22 /// WWC2 (11732394_at) / Fold change /veh CLDN22 /// WWC2 (11732394_at) / RFU HLA-DPB1 (11760878_x_at) / Fold change /veh HLA-DPB1 (11760878_x_at) / RFU SPINT1 (11716480_a_at) / Fold change /veh SPINT1 (11716480_a_at) / RFU GAP43 (11754022_s_at) / Fold change /veh GAP43 (11754022_s_at) / RFU A4GNT (11735810_at) / Fold change /veh A4GNT (11735810_at) / RFU PRB3 (11715151_x_at) / Fold change /veh PRB3 (11715151_x_at) / RFU TUBB4B (11761932_at) / Fold change /veh TUBB4B (11761932_at) / RFU CAPN14 (11732068_a_at) / Fold change /veh CAPN14 (11732068_a_at) / RFU TMCC2 (11721928_a_at) / Fold change /veh TMCC2 (11721928_a_at) / RFU IRGQ (11745062_a_at) / Fold change /veh IRGQ (11745062_a_at) / RFU FAM174B (11720279_a_at) / Fold change /veh FAM174B (11720279_a_at) / RFU TMPRSS4 (11748680_a_at) / Fold change /veh TMPRSS4 (11748680_a_at) / RFU FAM212B (11763350_a_at) / Fold change /veh FAM212B (11763350_a_at) / RFU PLEKHG5 (11743358_a_at) / Fold change /veh PLEKHG5 (11743358_a_at) / RFU ZSCAN30 (11745921_a_at) / Fold change /veh ZSCAN30 (11745921_a_at) / RFU CMKLR1 (11741424_a_at) / Fold change /veh CMKLR1 (11741424_a_at) / RFU LOC101060620 /// MAPK8IP1 (11723275_at) / Fold change /veh LOC101060620 /// MAPK8IP1 (11723275_at) / RFU SPTSSB (11747773_x_at) / Fold change /veh SPTSSB (11747773_x_at) / RFU PRSS12 (11739890_at) / Fold change /veh PRSS12 (11739890_at) / RFU BIN1 (11741810_x_at) / Fold change /veh BIN1 (11741810_x_at) / RFU WNT11 (11732464_a_at) / Fold change /veh WNT11 (11732464_a_at) / RFU C10orf10 (11716521_a_at) / Fold change /veh C10orf10 (11716521_a_at) / RFU C5orf56 (11738089_at) / Fold change /veh C5orf56 (11738089_at) / RFU CYB561 (11721691_x_at) / Fold change /veh CYB561 (11721691_x_at) / RFU ANKRD19P (11752326_a_at) / Fold change /veh ANKRD19P (11752326_a_at) / RFU OR2T12 /// OR2T33 /// OR2T8 (11738714_s_at) / Fold change /veh OR2T12 /// OR2T33 /// OR2T8 (11738714_s_at) / RFU VCAN (11748164_a_at) / Fold change /veh VCAN (11748164_a_at) / RFU JSRP1 (11732532_at) / Fold change /veh JSRP1 (11732532_at) / RFU KRTAP10-11 (11738290_x_at) / Fold change /veh KRTAP10-11 (11738290_x_at) / RFU MYO3A (11730013_a_at) / Fold change /veh MYO3A (11730013_a_at) / RFU EBF3 (11725865_a_at) / Fold change /veh EBF3 (11725865_a_at) / RFU CAMK2N1 (11719241_x_at) / Fold change /veh CAMK2N1 (11719241_x_at) / RFU C5orf56 (11738088_a_at) / Fold change /veh C5orf56 (11738088_a_at) / RFU OLFML3 (11715873_a_at) / Fold change /veh OLFML3 (11715873_a_at) / RFU LOC100653217 /// NTM (11731650_a_at) / Fold change /veh LOC100653217 /// NTM (11731650_a_at) / RFU MAPK11 (11762145_a_at) / Fold change /veh MAPK11 (11762145_a_at) / RFU FIZ1 (11724087_x_at) / Fold change /veh FIZ1 (11724087_x_at) / RFU OASL (11726364_x_at) / Fold change /veh OASL (11726364_x_at) / RFU SOX15 (11748057_x_at) / Fold change /veh SOX15 (11748057_x_at) / RFU CD79A (11719716_a_at) / Fold change /veh CD79A (11719716_a_at) / RFU HIST1H1D (11736915_at) / Fold change /veh HIST1H1D (11736915_at) / RFU CASKIN2 (11723855_a_at) / Fold change /veh CASKIN2 (11723855_a_at) / RFU LOC730098 (11760151_x_at) / Fold change /veh LOC730098 (11760151_x_at) / RFU OR4N2 (11742367_at) / Fold change /veh OR4N2 (11742367_at) / RFU PRRT2 (11749266_a_at) / Fold change /veh PRRT2 (11749266_a_at) / RFU SNX32 (11753110_a_at) / Fold change /veh SNX32 (11753110_a_at) / RFU CDHR5 (11726645_a_at) / Fold change /veh CDHR5 (11726645_a_at) / RFU RCAN1 (11760418_a_at) / Fold change /veh RCAN1 (11760418_a_at) / RFU FAM167A (11723789_a_at) / Fold change /veh FAM167A (11723789_a_at) / RFU FAM26E (11764081_at) / Fold change /veh FAM26E (11764081_at) / RFU ISYNA1 (11749810_s_at) / Fold change /veh ISYNA1 (11749810_s_at) / RFU ACY1 (11761880_at) / Fold change /veh ACY1 (11761880_at) / RFU 11764098_at / Fold change /veh 11764098_at / RFU SAMD14 (11745864_x_at) / Fold change /veh SAMD14 (11745864_x_at) / RFU NPB (11741838_a_at) / Fold change /veh NPB (11741838_a_at) / RFU TMPRSS6 (11731388_a_at) / Fold change /veh TMPRSS6 (11731388_a_at) / RFU KRTAP10-2 (11738614_at) / Fold change /veh KRTAP10-2 (11738614_at) / RFU ARHGAP8 /// PRR5-ARHGAP8 (11727945_x_at) / Fold change /veh ARHGAP8 /// PRR5-ARHGAP8 (11727945_x_at) / RFU KRTAP5-7 /// NADSYN1 (11734609_at) / Fold change /veh KRTAP5-7 /// NADSYN1 (11734609_at) / RFU RASL12 (11751679_a_at) / Fold change /veh RASL12 (11751679_a_at) / RFU CDKN2B (11736163_a_at) / Fold change /veh CDKN2B (11736163_a_at) / RFU PRF1 (11729649_at) / Fold change /veh PRF1 (11729649_at) / RFU, ZNF638 /// ZNF638-IT1 / Fold change vs veh, ZNF638 /// ZNF638-IT1 / RFU, PANK3 / Fold change vs veh, PANK3 / RFU, SH3YL1 / Fold change vs veh, SH3YL1 / RFU, ZEB2 / Fold change vs veh, ZEB2 / RFU, NRIP1 / Fold change vs veh, NRIP1 / RFU, PTTG1IP / Fold change vs veh, PTTG1IP / RFU, CAPN2 / Fold change vs veh, CAPN2 / RFU, MED14 / Fold change vs veh, MED14 / RFU, SNORA58 / Fold change vs veh, SNORA58 / RFU, C1orf63 / Fold change vs veh, C1orf63 / RFU, LRRFIP1 / Fold change vs veh, LRRFIP1 / RFU, NDUFAF7 / Fold change vs veh, NDUFAF7 / RFU, SLC12A2 / Fold change vs veh, SLC12A2 / RFU, IBTK / Fold change vs veh, IBTK / RFU, ESF1 / Fold change vs veh, ESF1 / Fold change vs veh, TMEM50B / RFU, TAOK1 / Fold change vs veh, TAOK1 / RFU, ACBD3 / Fold change vs veh, ACBD3 / RFU, TMA16 / Fold change vs veh, TMA16 / RFU, RWDD3 / Fold change vs veh, RWDD3 / RFU, BCAT1 / Fold change vs veh, BCAT1 / RFU, EDEM3 / Fold change vs veh, EDEM3 / RFU, TMEM33 / Fold change vs veh, TMEM33 / RFU, WDR75 / Fold change vs veh, WDR75 / RFU, AHCTF1 / Fold change vs veh, AHCTF1 / RFU, TFRC / Fold change vs veh, TFRC / RFU, ZDHHC17 / Fold change vs veh, ZDHHC17 / RFU, NOM1 / Fold change vs veh, NOM1 / RFU, ARL8B / Fold change vs veh, ARL8B / RFU, ZBTB11 / Fold change vs veh, ZBTB11 / RFU, TAMM41 / Fold change vs veh, TAMM41 / RFU, KIAA1704 /// LOC100996395 / Fold change vs veh, KIAA1704 /// LOC100996395 / RFU, ING1 / Fold change vs veh, ING1 / RFU, TRMT61B / Fold change vs veh, TRMT61B / RFU, FUBP3 / Fold change vs veh, FUBP3 / RFU, TP53 / Fold change vs veh, TP53 / RFU, TNKS2 / Fold change vs veh, TNKS2 / RFU, ZFP14 / Fold change vs veh, ZFP14 / RFU, ACTR2 / Fold change vs veh, ACTR2 / RFU, PPP3R1 / Fold change vs veh, PPP3R1 / RFU, PIK3R1 / Fold change vs veh, PIK3R1 / RFU, HNRNPA1 / Fold change vs veh, HNRNPA1 / RFU, RNF170 / Fold change vs veh, RNF170 / RFU, ZNF28 / Fold change vs veh, ZNF28 / RFU, RNGTT / Fold change vs veh, RNGTT / RFU, OGT / Fold change vs veh, OGT / RFU, BRD1 / Fold change vs veh, BRD1 / RFU, MARS / Fold change vs veh, MARS / RFU, ZNF655 / Fold change vs veh, ZNF655 / RFU, FAHD1 / Fold change vs veh, FAHD1 / RFU, BDP1 / Fold change vs veh, BDP1 / RFU, LRRCC1 / Fold change vs veh, LRRCC1 / RFU, ARID1A / Fold change vs veh, ARID1A / RFU, ZNF146 / Fold change vs veh, ZNF146 / RFU, ZNF330 / Fold change vs veh, ZNF330 / RFU, GPN3 / Fold change vs veh, GPN3 / RFU, C9orf123 / Fold change vs veh, C9orf123 / RFU, N4BP2L2 / Fold change vs veh, N4BP2L2 / RFU, ARFIP1 / Fold change vs veh, ARFIP1 / RFU, FAM179B / Fold change vs veh, FAM179B / RFU, BCL10 / Fold change vs veh, BCL10 / RFU, UHRF1BP1L / Fold change vs veh, UHRF1BP1L / RFU, BET1 / Fold change vs veh, BET1 / RFU, CNOT2 / Fold change vs veh, CNOT2 / RFU, ZNF268 / Fold change vs veh, ZNF268 / Fold change vs veh, ZNF507 / RFU, DGCR2 / Fold change vs veh, DGCR2 / RFU, WDSUB1 / Fold change vs veh, WDSUB1 / Fold change vs veh, HSP90B1 /// MIR3652 / RFU, ADSS / Fold change vs veh, ADSS / RFU, GK / Fold change vs veh, GK / RFU, ZNF148 / Fold change vs veh, ZNF148 / RFU, TAF9 / Fold change vs veh, TAF9 / RFU, SLC1A5 / Fold change vs veh, SLC1A5 / RFU, SLMO2 / Fold change vs veh, SLMO2 / RFU, ABCC4 / Fold change vs veh, ABCC4 / RFU, LOC101060439 /// RAP1B / Fold change vs veh, LOC101060439 /// RAP1B / RFU, RFX7 / Fold change vs veh, RFX7 / RFU, GTPBP10 / Fold change vs veh, GTPBP10 / RFU, CNEP1R1 / Fold change vs veh, CNEP1R1 / RFU, BIVM-ERCC5 /// ERCC5 / Fold change vs veh, BIVM-ERCC5 /// ERCC5 / RFU, ILF3 / Fold change vs veh, ILF3 / RFU 11762660_at / Fold change /veh 11762660_at / RFU VCAN (11757783_s_at) / Fold change /veh VCAN (11757783_s_at) / RFU DDX43 (11728927_at) / Fold change /veh DDX43 (11728927_at) / RFU KRT8 (11758188_x_at) / Fold change /veh KRT8 (11758188_x_at) / RFU NKD1 (11759106_at) / Fold change /veh NKD1 (11759106_at) / RFU SRD5A1 (11742802_a_at) / Fold change /veh SRD5A1 (11742802_a_at) / RFU TPSAB1 /// TPSB2 (11721975_s_at) / Fold change /veh TPSAB1 /// TPSB2 (11721975_s_at) / RFU GSTM3 (11746129_a_at) / Fold change /veh GSTM3 (11746129_a_at) / RFU IL23R (11737362_x_at) / Fold change /veh IL23R (11737362_x_at) / RFU TMEM51 (11727254_a_at) / Fold change /veh TMEM51 (11727254_a_at) / RFU PIWIL2 (11732686_x_at) / Fold change /veh PIWIL2 (11732686_x_at) / RFU ORM1 (11744905_x_at) / Fold change /veh ORM1 (11744905_x_at) / RFU CCDC152 (11743942_at) / Fold change /veh CCDC152 (11743942_at) / RFU ECM1 (11717891_a_at) / Fold change /veh ECM1 (11717891_a_at) / RFU IL23R (11748794_a_at) / Fold change /veh IL23R (11748794_a_at) / RFU TNFAIP8L3 (11732012_x_at) / Fold change /veh TNFAIP8L3 (11732012_x_at) / RFU MBOAT4 (11741988_at) / Fold change /veh MBOAT4 (11741988_at) / RFU 11764193_at / Fold change /veh 11764193_at / RFU TMEM53 (11763286_at) / Fold change /veh TMEM53 (11763286_at) / RFU MAGEB2 (11727129_at) / Fold change /veh MAGEB2 (11727129_at) / RFU TMEM200A (11744735_a_at) / Fold change /veh TMEM200A (11744735_a_at) / RFU CCDC152 (11751479_a_at) / Fold change /veh CCDC152 (11751479_a_at) / RFU FAM211A (11726209_a_at) / Fold change /veh FAM211A (11726209_a_at) / RFU RGS16 (11746705_a_at) / Fold change /veh RGS16 (11746705_a_at) / RFU VCAN (11755009_s_at) / Fold change /veh VCAN (11755009_s_at) / RFU RHOB (11743442_s_at) / Fold change /veh RHOB (11743442_s_at) / RFU RGS16 (11720943_a_at) / Fold change /veh RGS16 (11720943_a_at) / RFU RGS16 (11720944_at) / Fold change /veh RGS16 (11720944_at) / RFU, VPS4B / Fold change vs veh, VPS4B / RFU, CREB1 / Fold change vs veh, CREB1 / RFU, DNAJC13 / Fold change vs veh, DNAJC13 / RFU, GNAQ / Fold change vs veh, GNAQ / RFU, CDK5R1 / Fold change vs veh, CDK5R1 / RFU, ZRANB3 / Fold change vs veh, ZRANB3 / RFU, CUL4A / Fold change vs veh, CUL4A / RFU, CCNY / Fold change vs veh, CCNY / RFU, UFL1 / Fold change vs veh, UFL1 / RFU, COG3 / Fold change vs veh, COG3 / RFU, DIAPH2 / Fold change vs veh, DIAPH2 / RFU, SKA2 / Fold change vs veh, SKA2 / RFU, AFF3 / Fold change vs veh, AFF3 / RFU, LMF1 / Fold change vs veh, LMF1 / RFU, IPO11 / Fold change vs veh, IPO11 / RFU, DFFB / Fold change vs veh, DFFB / RFU, FOXP1 / Fold change vs veh, FOXP1 / RFU, CARD8 / Fold change vs veh, CARD8 / RFU, STRN3 / Fold change vs veh, STRN3 / RFU, ADK / Fold change vs veh, ADK / RFU, RASSF2 / Fold change vs veh, RASSF2 / RFU, WIPF1 / Fold change vs veh, WIPF1 / RFU, LARP1B / Fold change vs veh, LARP1B / RFU, RASA1 / Fold change vs veh, RASA1 / RFU, RB1 / Fold change vs veh, RB1 / RFU, PPFIA1 / Fold change vs veh, PPFIA1 / RFU, MAT2A / Fold change vs veh, MAT2A / RFU, CCT5 / Fold change vs veh, CCT5 / RFU, WDR92 / Fold change vs veh, WDR92 / RFU, CUX1 / Fold change vs veh, CUX1 / RFU, TTC7A / Fold change vs veh, TTC7A / RFU, TMEM135 / Fold change vs veh, TMEM135 / RFU, DEPTOR / Fold change vs veh, DEPTOR / RFU, CPM / Fold change vs veh, CPM / RFU, DNAJB6 / Fold change vs veh, DNAJB6 / RFU, CACNA2D3 / Fold change vs veh, CACNA2D3 / RFU, DTX4 / Fold change vs veh, DTX4 / RFU, TFCP2 / Fold change vs veh, TFCP2 / RFU, GMCL1 /// GMCL1P1 / Fold change vs veh, GMCL1 /// GMCL1P1 / RFU, AEBP2 / Fold change vs veh, AEBP2 / RFU, SNHG1 /// SNORD22 /// SNORD25 /// SNORD26 /// SNORD27 /// SNORD28 /// SNORD29 /// SNORD31 / Fold change vs veh, SNHG1 /// SNORD22 /// SNORD25 /// SNORD26 /// SNORD27 /// SNORD28 /// SNORD29 /// SNORD31 / Fold change (Aza/veh), C12orf56 (ProbeSet 11735607_a_at) / Fold change (ACY-1035/veh), C12orf56 (ProbeSet 11735607_a_at) / Fold change (Aza/veh), FGFR1OP (ProbeSet 11751329_s_at) / Fold change (ACY-1035/veh), FGFR1OP (ProbeSet 11751329_s_at) / Fold change (Aza/veh), VPS36 (ProbeSet 11739960_a_at) / Fold change (ACY-1035/veh), VPS36 (ProbeSet 11739960_a_at) / RFU SYPL1 (11715823_x_at) / Fold change /veh SYPL1 (11715823_x_at) / RFU IGFBP7 (11715501_s_at) / Fold change /veh IGFBP7 (11715501_s_at) / RFU REEP3 (11722064_at) / Fold change /veh REEP3 (11722064_at) / RFU IGLL1 (11728026_x_at) / Fold change /veh IGLL1 (11728026_x_at): dose or concentration left out as unconfirmed. The settings on record: MV-4-11 cells, 48 hours.

Take `Nc1ncn([C@@H]2O[C@H](CO)[C@@H](O)[C@H]2O)c(=O)n1` [azacitidine]: the “Fold change /veh BIN1 (11741810_x_at)” value is on record as 1.02.
